Test results published in ChEMBL document CHEMBL1201862, “PubChem BioAssay data set” (2004).
Calls of active or inactive are those of the source.

Key:
[1] = molecular target: 5-hydroxytryptamine receptor 1A (Homo sapiens, UniProt P08908); format: functional
[2] = molecular target: T1, Tyrosine-protein phosphatase non-receptor type 7 (Homo sapiens, UniProt P35236); experiment: HePTP tyrosine phosphatase activity blockers – biochemical, absorbance, leukemia target, primary screen (AID 521); format: functional
T1 sequence (P35236 whole entry): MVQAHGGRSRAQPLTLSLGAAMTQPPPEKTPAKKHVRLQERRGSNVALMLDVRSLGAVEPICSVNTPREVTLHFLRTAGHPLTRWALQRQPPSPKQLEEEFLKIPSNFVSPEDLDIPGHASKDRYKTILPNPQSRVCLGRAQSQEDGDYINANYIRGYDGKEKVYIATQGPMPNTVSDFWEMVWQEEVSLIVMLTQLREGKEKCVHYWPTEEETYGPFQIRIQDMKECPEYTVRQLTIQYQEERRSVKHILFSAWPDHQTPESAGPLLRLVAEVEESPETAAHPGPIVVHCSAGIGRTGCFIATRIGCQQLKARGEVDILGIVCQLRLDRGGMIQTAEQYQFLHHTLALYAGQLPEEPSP

[3] = molecular target: Eukaryotic translation initiation factor 4E (Mus musculus, UniProt P63073); experiment: blockers of eIF4G binding by eIF4E – biochemical, TR-FRET, dose response (AID 855); format: functional;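 note: potency for disrupting eIF4E binding to eIF4GI seen as loss of FRET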
[4] = molecular target: Matrix metalloproteinase-14 (Homo sapiens, UniProt P50281); experiment: Dose Response confirmation of uHTS hits for a small molecule inhibitors of MT1-MMP activation in a fluorescence assay set 2.; format: functional
[5] = viability loss in MITF-independent A375 cells – cell-based, CellTiter-Glo luminescence, dry powder, set 2, counter-screen for MITF inhibitor project, dose response (AID 624489); format: functional; details: A-375;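 note: actives are compounds lowering A375 viability meaning general cytotoxicity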
[6] = cytotoxicity in MITF-independent A375 cells – cell-based, CellTiter-Glo luminescence, dry powder, set 4, counter-screen for MITF inhibitor project, dose response (AID 624364); format: functional; details: A-375;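 note: A375 melanoma cells are MITF independent so this is a counter screen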
cells [7] = format: functional, cell-based
cells [8] = format: functional, cell-based; remark: listed apart in the source
[9] = molecular target: T2, Trace amine-associated receptor 1 (Homo sapiens, UniProt Q96RJ0); experiment: Counterscreen for agonists of the human trace amine associated receptor 1 (hTAAR1): Fluorescence-based cell-based high throughput dose response assay to identify hTAAR1 agonist that also desensitize TAAR1 receptor response.; format: functional
T2 sequence (Q96RJ0 whole entry): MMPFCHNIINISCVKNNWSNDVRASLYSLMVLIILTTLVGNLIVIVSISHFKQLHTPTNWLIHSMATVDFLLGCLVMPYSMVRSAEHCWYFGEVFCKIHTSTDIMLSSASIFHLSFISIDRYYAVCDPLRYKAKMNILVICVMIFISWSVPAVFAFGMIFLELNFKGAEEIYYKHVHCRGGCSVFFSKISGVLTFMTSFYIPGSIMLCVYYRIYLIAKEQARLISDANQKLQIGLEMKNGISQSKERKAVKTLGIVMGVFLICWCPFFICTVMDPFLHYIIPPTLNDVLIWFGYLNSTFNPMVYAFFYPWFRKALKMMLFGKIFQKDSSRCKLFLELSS

[10] = molecular target: T2, Trace amine-associated receptor 1; experiment: Fluorescence-based cell-based high throughput dose response assay to identify agonists of the human trace amine associated receptor 1 (TAAR1).; format: functional
Troponin, cardiac muscle = Troponin, cardiac muscle (Homo sapiens, UniProt P19429+P45379+P63316); experiment: Fluorescence-based biochemical high throughput dose response assay for activators of the calcium sensitivity of cardiac Regulated Thin Filaments (RTF). [Related pubchem assays (depositor defined):AID493008, AID493018, AID504382, AID504383]; format: protein-complex assay
[11] = potency of ADAM10 substrate cleavage blockers – biochemical, QFRET, dose response (AID 743254);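 note: ADAM10 enzyme with the DM2 quenched FRET peptide as substrate; EDANS fluorescence gain as the protease cuts the substrate; inhibitor potency against ADAM10 proteolytic activity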
[12] = molecular target: Disintegrin and metalloproteinase domain-containing protein 17 (Homo sapiens, UniProt P78536); experiment: inhibition of ADAM17 substrate cleavage – biochemical, quenched FRET substrate, counter-screen for ADAM10 exosite inhibitor project, dose response (AID 743253)
Paired box protein Pax-8 = Paired box protein Pax-8 (Homo sapiens, UniProt Q06710); experiment: PAX8 transcriptional activity inhibition in RMG-I – RMG-I cells, luciferase, cherry-pick, dose response (AID 687027); format: functional, cell-based;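 note: luciferase reporter driven by Pax8 target thyroperoxidase promoter measured by SteadyGlo luminescence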
[13] = OVCAR8 cell viability loss – plate reader, dry powder samples, PAX8 project, dose response (AID 743197); format: functional, cell-based; details: OVCAR-8
[14] = IGROV1 cell killing – plate reader, dry powder samples, PAX8 inhibitor project, dose response (AID 743043); format: functional, cell-based; details: IGROV-1
[15] = Luminescence Cell-Based Dose Retest to Confirm Inhibitors of Cancer Stem Cells. [Related pubchem assays (depositor defined):AID2717, AID2721]; format: functional; details: Homo sapiens
[16] = microbe, parasite or virus in culture; format: functional; details: Mycobacterium tuberculosis
[17] = OVCAR-3 cell viability loss – plate reader, dry powder samples, PAX8 inhibitor project, dose response (AID 743044); format: functional, cell-based
[18] = general cell-killing toxicity readout – plate reader, dry powder samples, cytotoxicity control for PAX8 inhibitor project, dose response (AID 743021); format: functional, cell-based
Transthyretin = Transthyretin (Homo sapiens, UniProt P02766); experiment: Luminescence-based cell-based high throughput dose response assay to identify activators of Transthyretin (TTR) transcription.; format: functional
Kallikrein-7 = Kallikrein-7 (Homo sapiens, UniProt P49862); experiment: Fluorescence Intensity-based biochemical primary high throughput dose response assay to identify activators of kallikrein-7 (K7) zymogen.
[19] = Luminescence-based dose response cell-based high throughput screening assay for cytotoxic compounds using the IEC-6 intestinal epithelial cell line. [Related pubchem assays: 1858 (Summary AID.), 1825 (Counterscreen.), 1907 (Confirmation screen.)]; format: functional
[20] = HEK-293T viability loss after treatment – luminescence, T-cell screen hits, cytotoxicity control for TCR NF-kB inhibitor project, dose response (AID 489026); format: functional, cell-based;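 note: cells exposed to compound about 14 hours before the viability readout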
[21] = NIH3T3 cell viability loss – ATP luminescence, mouse fibroblasts, counter-screen, dose response (AID 2010); format: functional, cell-based;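 note: cells exposed to compound for about 90 hours before reading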
cells [22] = experiment: cells
[23] = Trypanosoma cruzi growth suppression in host cells – NIH3T3 host cells, beta-gal luminescence, confirmation (AID 2044); format: functional, cell-based;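 note: intracellular parasites grown in NIH/3T3 mouse fibroblasts as host cells; luminescent beta-galactosidase reporter signal from transgenic T. cruzi replicating inside host cells; inhibitors lower the luminescence signal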
[24] = molecular target: T3, Oxysterols receptor LXR-beta (Homo sapiens, UniProt P55055); experiment: LXR agonists, Gal4 luciferase reporter, dose response, counter-screen for ssDAF-12 agonist project, cell-based, luminescence, HEK293, S. stercoralis campaign (AID 720737); format: functional; details: read-out: IC50 (the source's name)
T3 sequence (P55055 whole entry): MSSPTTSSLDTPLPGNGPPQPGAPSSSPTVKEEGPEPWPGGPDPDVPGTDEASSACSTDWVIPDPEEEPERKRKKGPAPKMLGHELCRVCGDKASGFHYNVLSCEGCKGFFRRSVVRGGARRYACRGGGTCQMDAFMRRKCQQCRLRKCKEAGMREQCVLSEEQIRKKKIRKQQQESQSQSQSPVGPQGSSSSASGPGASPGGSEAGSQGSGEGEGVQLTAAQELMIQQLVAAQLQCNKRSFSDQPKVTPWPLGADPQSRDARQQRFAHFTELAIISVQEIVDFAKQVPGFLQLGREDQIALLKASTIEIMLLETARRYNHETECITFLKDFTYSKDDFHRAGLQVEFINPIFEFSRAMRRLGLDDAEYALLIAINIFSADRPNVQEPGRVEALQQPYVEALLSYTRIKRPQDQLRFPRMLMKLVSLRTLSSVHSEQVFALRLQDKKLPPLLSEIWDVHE

[25] = Luminescence-based cell-based high throughput dose response assay to identify activators of the DAF-12 from the parasite S. stercoralis (ssDAF-12).; format: functional

Sequence of Paired box protein Pax-8 (Q06710 whole entry): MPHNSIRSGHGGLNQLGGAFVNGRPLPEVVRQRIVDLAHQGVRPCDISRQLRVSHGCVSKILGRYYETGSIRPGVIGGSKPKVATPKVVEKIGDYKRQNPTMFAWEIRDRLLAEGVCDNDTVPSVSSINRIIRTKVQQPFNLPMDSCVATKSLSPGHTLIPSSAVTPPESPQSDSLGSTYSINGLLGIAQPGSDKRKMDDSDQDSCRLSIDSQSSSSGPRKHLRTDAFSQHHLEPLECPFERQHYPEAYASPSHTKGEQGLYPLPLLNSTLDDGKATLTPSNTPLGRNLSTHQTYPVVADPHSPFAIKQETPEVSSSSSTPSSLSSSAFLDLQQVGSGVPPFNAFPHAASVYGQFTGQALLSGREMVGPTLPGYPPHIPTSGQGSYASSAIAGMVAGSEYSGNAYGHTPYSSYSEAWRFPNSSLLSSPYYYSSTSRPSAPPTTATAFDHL
Sequence of Disintegrin and metalloproteinase domain-containing protein 17 (P78536 whole entry, the tested form may be a part): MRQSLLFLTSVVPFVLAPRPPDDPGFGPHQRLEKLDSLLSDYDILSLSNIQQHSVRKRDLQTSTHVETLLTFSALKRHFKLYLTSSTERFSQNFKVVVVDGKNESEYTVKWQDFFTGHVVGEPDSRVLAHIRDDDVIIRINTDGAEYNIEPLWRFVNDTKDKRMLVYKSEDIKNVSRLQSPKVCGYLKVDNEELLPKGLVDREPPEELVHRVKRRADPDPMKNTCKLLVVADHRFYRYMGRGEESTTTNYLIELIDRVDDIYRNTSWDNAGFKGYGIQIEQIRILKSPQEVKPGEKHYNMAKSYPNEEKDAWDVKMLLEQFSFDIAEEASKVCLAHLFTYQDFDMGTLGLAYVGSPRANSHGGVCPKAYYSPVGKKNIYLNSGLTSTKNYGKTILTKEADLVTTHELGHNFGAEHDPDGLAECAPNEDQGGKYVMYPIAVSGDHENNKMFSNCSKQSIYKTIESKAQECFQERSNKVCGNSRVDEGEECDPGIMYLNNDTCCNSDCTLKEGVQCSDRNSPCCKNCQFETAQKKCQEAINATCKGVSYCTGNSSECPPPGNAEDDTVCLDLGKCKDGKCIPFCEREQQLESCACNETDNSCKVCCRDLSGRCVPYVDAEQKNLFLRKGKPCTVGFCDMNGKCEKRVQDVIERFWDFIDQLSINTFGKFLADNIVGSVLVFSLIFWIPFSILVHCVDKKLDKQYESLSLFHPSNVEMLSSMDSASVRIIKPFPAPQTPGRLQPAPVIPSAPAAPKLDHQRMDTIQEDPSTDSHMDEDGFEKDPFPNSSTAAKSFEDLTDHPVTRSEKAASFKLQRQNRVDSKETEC
Sequence of 5-hydroxytryptamine receptor 1A (P08908 whole entry): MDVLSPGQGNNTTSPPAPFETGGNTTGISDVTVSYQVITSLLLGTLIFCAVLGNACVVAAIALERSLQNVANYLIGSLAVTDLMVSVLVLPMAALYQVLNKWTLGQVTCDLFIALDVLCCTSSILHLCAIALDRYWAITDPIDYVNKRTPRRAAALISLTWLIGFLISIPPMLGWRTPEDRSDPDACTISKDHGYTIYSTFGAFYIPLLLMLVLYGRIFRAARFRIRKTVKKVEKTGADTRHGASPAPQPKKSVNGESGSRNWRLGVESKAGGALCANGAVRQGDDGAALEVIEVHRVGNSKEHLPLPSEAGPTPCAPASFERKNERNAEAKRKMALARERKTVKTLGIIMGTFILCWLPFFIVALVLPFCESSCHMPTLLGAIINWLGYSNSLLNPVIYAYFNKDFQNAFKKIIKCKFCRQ
Sequence of Eukaryotic translation initiation factor 4E (P63073 whole entry): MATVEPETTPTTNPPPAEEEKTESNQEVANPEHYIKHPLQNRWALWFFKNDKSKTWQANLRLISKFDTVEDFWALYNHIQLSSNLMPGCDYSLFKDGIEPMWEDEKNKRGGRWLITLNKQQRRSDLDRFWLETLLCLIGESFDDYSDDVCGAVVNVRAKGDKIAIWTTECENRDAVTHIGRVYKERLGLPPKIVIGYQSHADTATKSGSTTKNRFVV
Sequence of Kallikrein-7 (P49862 whole entry): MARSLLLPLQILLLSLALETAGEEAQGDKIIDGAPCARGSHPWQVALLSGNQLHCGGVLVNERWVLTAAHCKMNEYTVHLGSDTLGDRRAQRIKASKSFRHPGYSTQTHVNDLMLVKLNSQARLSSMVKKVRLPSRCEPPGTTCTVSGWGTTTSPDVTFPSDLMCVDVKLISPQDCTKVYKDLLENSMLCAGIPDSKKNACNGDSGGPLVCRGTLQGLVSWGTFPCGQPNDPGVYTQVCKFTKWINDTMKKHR

Which EC50 [1] does the source give for `CSc1nc2ccc(NC(=O)C3CCCO3)cc2s1` (stereo not given) here?
The EC50 was > 50 µM (not active).

Which IC50 [2] does the source give for `NC(=O)c1c(NC(=O)CSc2nnc(-c3ccco3)n2-c2ccccc2)sc2c1CCC2` here?
Its IC50 is 10.6 µM (active).

And the IC50 [3]?
The IC50 was > 64 µM (inactive).

Which IC50 [4] does the source give for `COc1cc(-c2cc(=O)c3c(O)c(OC)c(OC)cc3o2)cc(OC)c1O` here?
Its IC50 is > 80 µM (inactive).

With `CCN(CC)CCCCNC1=C(Nc2ccccc2)C(=O)c2ccccc2C1=O` as the compound, how does the AC50 [5] read?
Its AC50 is > 70 µM (inactive).

What about the AC50 [6] of the same compound?
Its AC50 is > 70 µM (inactive).

For `COc1ccccc1CCNS(=O)(=O)CCNC(=O)c1ccc2c(c1)OCO2`, which IC50 (cells [7]) is on record?
The IC50 was > 29.9 µM (inactive).

And the EC50 (cells [8])?
The EC50 was > 29.9 µM (inactive).

And the IC50 [9]?
The IC50 was 6.62 µM (active).

What about the EC50 [10] of the same compound?
Its EC50 is 4.48 µM (active).

With `CNC(=O)N(O)C1N(C)C(=O)N(CC(=O)OC)C1(C)C` (stereo not given) as the compound, how does the IC50 [2] read?
Its IC50 is > 100 µM (not active).

What about the EC50 (Troponin, cardiac muscle) of the same compound?
The EC50 was > 71.5 µM (inactive).

For `CCCCC[C@@H](C)N1C[C@@H](COCc2ccccc2)Oc2cc(N3CC[C@H](O)C3)ccc2S1(=O)=O`, which IC50 [11] is on record?
The IC50 was 11.3 µM (inactive).

What about the IC50 [12] of the same compound?
The IC50 was > 69.5 µM (inactive).

For `Cc1c(C(=O)O)c(O)cc2c1C(=O)c1c(O)c([C@@H]3O[C@H](CO)[C@@H](O)[C@H](O)[C@H]3O)c(O)c(O)c1C2=O` [CARMINIC ACID], which IC50 [4] is on record?
Its IC50 is 19.5 µM (active).

With `O=C(NC1=C(N2CCCCC2)C(=O)c2ccccc2C1=O)c1ccc(Br)cc1` as the compound, how does the AC50 [5] read?
Its AC50 is 50.3 µM (active).

And the AC50 [6]?
Its AC50 is > 70 µM (inactive).

Which EC50 [1] does the source give for `CC1CN(c2nnnn2-c2ccccc2)CC(C)O1` (stereo not given) here?
The EC50 was > 50 µM (not active).

For `C[C@@H]1CN([C@H](C)CO)C(=O)c2cc(NS(=O)(=O)c3ccc(Cl)cc3)ccc2O[C@@H](C)CCCCO[C@H]1CN(C)S(=O)(=O)c1ccc(F)cc1`, which AC50 (Paired box protein Pax-8) is on record?
The AC50 was 2.46 µM (active).

What about the AC50 [13] of the same compound?
Its AC50 is > 70 µM (inactive).

And the AC50 [14]?
Its AC50 is 43.9 µM (active).

What does the source list for `O=[N+]([O-])c1cccnc1N1CCC(c2cc(-c3cccc(C(F)(F)F)c3)[nH]n2)CC1`?
AC50 [15]: 2.87 µM (active); IC50 [11]: 12.7 µM (inactive); CC50 [16]: 28.7 µM (active)

For `C[C@@H]1CN([C@H](C)CO)C(=O)c2cc(NC(=O)Nc3ccc4c(c3)OCO4)ccc2O[C@@H](C)CCCCO[C@H]1CN(C)Cc1ccc(C(F)(F)F)cc1`, which AC50 (Paired box protein Pax-8) is on record?
The AC50 was 8.35 µM (active).

And the AC50 [13]?
The AC50 was > 60 µM (inactive).

What about the AC50 [17] of the same compound?
Its AC50 is 11.6 µM (active).

And the AC50 [14]?
The AC50 was 12.8 µM (active).

With `O=C(C[C@@H]1CC[C@H]2[C@@H](COC[C@@H](O)CN2Cc2cccc(F)c2)O1)NCC1CCCCC1` as the compound, how does the AC50 [18] read?
Its AC50 is 61.8 µM (active).

And the AC50 (Paired box protein Pax-8)?
Its AC50 is 34 µM (active).

For `COc1ccc(C(=O)NC2CCCc3c2cnn3-c2cc(F)cc(F)c2)c(OC)c1OC` (stereo not given), which EC50 (Transthyretin) is on record?
The EC50 was > 167 µM (inactive).

For `Cc1c(C(=O)N2CCc3ccccc32)cnn1C`, which EC50 (Transthyretin) is on record?
Its EC50 is > 167 µM (inactive).

With `COc1ccc(OC)c(/C=C/C(=O)N(C)CC(=O)Nc2ccc(N3CCOCC3)cc2)c1` as the compound, how does the EC50 (Kallikrein-7) read?
The EC50 was > 69.5 µM (inactive).

For `c1ccc(Cc2cnc(N3CCNCC3)nc2)cc1`, which IC50 (cells [7]) is on record?
Its IC50 is > 29.9 µM (inactive).

And the EC50 (cells [8])?
The EC50 was > 29.9 µM (inactive).

And the IC50 [9]?
Its IC50 is > 29.9 µM (inactive).

What about the EC50 [10] of the same compound?
Its EC50 is 7.24 µM (active).

Which results are given for `CCC(C)C(=O)N[C@@H](c1ccccc1)[C@@H](O)C(=O)O[C@H]1C[C@@]2(O)[C@@H](OC(=O)c3ccccc3)C3[C@](C)(C(=O)[C@H](OC(C)=O)C(=C1C)C2(C)C)[C@@H](O)C[C@H]1OC[C@@]31OC(C)=O` (stereo not given in full)?
IC50 [19]: 0.244 µM (active); IC50 [20]: > 80 µM (inactive); EC50 [21]: 6.26 µM (active); EC50 (cells [22]): 0.025 µM (active); EC50 [23]: < 0.1 µM (active)

For `O=[N+]([O-])c1cccnc1N1CCC(c2cc(-c3cccc(C(F)(F)F)c3)n[nH]2)CC1`, which IC50 [12] is on record?
Its IC50 is > 69.5 µM (inactive).

Which results are given for `Cc1ccc(/C=N/Nc2nnc(Cl)c3ccccc23)cc1`?
EC50 [24]: > 67.5 µM (inactive); IC50 [25]: > 67.5 µM (inactive)
